Holding throughout (type): cell-based
Assay [1] deals with Propionibacterium acnes (ATCC6919). Kind of assay: Antibacterial activity evaluation, agar dilution MIC. The following applies: GAM agar medium, 35° C. for 48 hours (anaerobic incubation). An excerpt:
(§1) 4-Guanidinobutyldodecanamide hydrochloride (LAG-HCl) which is a salt of an amide group-containing guanidine derivative and N-cocoyl-L-arginine ethyl ester-DL-pyrrolidone carboxylate which is an N-long chain acyl basic amino acid derivative were examined for their concentrations at which the growth of each test strain was inhibited completely (MIC).
(§2) The test strains employed were Escherichia coli (ATCC8739), Pseudomonas aeruginosa (ATCC9027), Staphylococcus aureus (ATCC6538), Streptococcus mutans (ATCC35275), Propionibacterium acnes (ATCC6919), Candida albicans (ATCC10231), Aspergillus niger (ATCC16404), Trichophyton mentagrophytes (ATCC11480) and Malassezia furfur (ATCC14521).
(§3) A bacterial cell suspension of E.coli, P.aeruginosa, S.aureus and S.mutans was obtained by incubation in a sensitive broth medium at 35° C. for 20 hours. The bacterial cell suspension of P.acnes was obtained by anaerobic incubation in a GAM agar medium at 35° C. for 20 hours followed by collecting cells with a platinum loop spatula followed by suspending the cells in a sterilized physiological saline at a cell density at about 10^8 cells/ml. The bacterial cell suspension of C.albicans was obtained by incubation in a potato dextrose agar medium at 25° C. for 48 hours followed by collecting cells with a platinum loop spatula followed by suspending the cells in a sterilized physiological saline at a cell density at about 10^6 cells/ml. The bacterial cell suspension of A.niger was obtained by incubation in a potato dextrose agar medium at 25° C. for 7 days followed by collecting cells with a platinum loop spatula followed by suspending the cells in a sterilized physiological saline followed by filtration through a sterilized gauze to adjust at a cell density at about 10^6 cells/ml. The bacterial cell suspension of T.mentagrophytes was obtained by incubation in a Sabouraud's agar medium at 25° C. for 7 days followed by collecting spores and hyphae with a platinum loop spatula followed by suspending the cells in a sterilized physiological saline followed by pelletizing using a homogenizer to adjust at a cell density at about 10^6 cells/ml. The bacterial cell suspension of M.furfur was obtained by incubation in an YMO agar medium at 25° C. for 7 days followed by suspending the test strain in a sterilized phosphate-buffered physiological saline at a cell density at about 10^6 cells/ml.
(§4) To obtain an antibacterial activity assay sample, 4-guanidinobutyldodecanamide hydrochloride was dissolved in ethylene glycol at 2% which was used as a mother liquor which was diluted with water subsequently. N-cocoyl-L-arginine ethyl ester-DL-pyrrolidone carboxylate was dissolved in water to prepare a test solution. The respective minimum growth inhibition concentration at which no microbial growth was observed was determined (μg/ml).
(§5) The agar medium (19 ml) was dissolved once and then kept at 50° C., and to this solution 1 ml of each diluted […] was added until reaching the intended concentration and mixed thoroughly and then solidified.
(§6) Subsequently, the cell suspension of each test strain was sampled using a platinum loop spatula, with which an about 1 cm line was drawn on the antibacterial agent-supplemented agar plate. Each plate was incubated at the respective temperature for the respective time period shown below. […]
(§7) For E.coli, P.aeruginosa, S.aureus, S.mutans, P.acnes, C.albicans, A.niger, T.mentagrophytes, M.furfur, the respective agar medium indicated in the Table 1 shown above was shown. […]
On the technique in general: Agar dilution tests growth on a series of plates holding different concentrations.

The subject of assay [2] is Malassezia furfur (ATCC14521). The assay is described as above. The following applies: YMO agar medium, 25° C. for 7 days.
Source text: as §1, §2, §3, §4, §5, §6, §7

Assay [3] deals with Trichophyton mentagrophytes (ATCC11480). The description is as above. To be noted: Sabouraud's agar medium, 25° C. for 7 days.
Source text: as §1, §2, §3, §4, §5, §6, §7

The subject of assay [4] is Staphylococcus aureus (ATCC6538). Described as above. The following applies: Muller-Hinton agar medium, 35° C. for 48 hours.
Source text: as §1, §2, §3, §4, §5, §6, §7

In assay [5] the test system is Escherichia coli (ATCC8739). The assay is described as above. The following applies: Muller-Hinton agar medium, 35° C. for 48 hours.
Source text: as §1, §2, §3, §4, §5, §6, §7

For assay [6], the system named is Aspergillus niger (ATCC16404). The assay is described as above. The following applies: Potato dextrose agar medium, 25° C. for 5 days.
Source text: as §1, §2, §3, §4, §5, §6, §7

The subject of assay [7] is Candida albicans (ATCC10231). The assay is described as above. To be noted: Potato dextrose agar medium, 25° C. for 48 hours.
Source text: as §1, §2, §3, §4, §5, §6, §7

Assay [8] relates to Streptococcus mutans (ATCC35275). Described as above. To be noted: Muller-Hinton agar medium, 35° C. for 48 hours.
Source text: as §1, §2, §3, §4, §5, §6, §7

Assay [9] has as its system Pseudomonas aeruginosa (ATCC9027). Described as above. To be noted: Muller-Hinton agar medium, 35° C. for 48 hours.
Source text: as §1, §2, §3, §4, §5, §6, §7

The next assay has as its system test strains. Kind of assay: Antibacterial activity evaluation, overall verdict over all test strains. To be noted: summary of the MIC tables.
Source text: as §1, §2, §4
(§8) In order to evaluate the contribution of acyl moiety to the antibacterial activity in amido group-containing guanidine derivatives, 4-guanidinobutyldecanamide acetate (DAG-AcOH), 4-guanidinobutyldodecanamide acetate (LAG-AcOH), 4-guanidinobutymyristilamide acetate (MAG-AcOH), 4-guanidinobutylpalmitylamide acetate (PAG-AcOH) were examined for their concentrations at which the growth of each test strain was inhibited completely (MIC).
(§9) The test strains employed were Escherichia coli (ATCC8739), Pseudomonas aeruglnosa (ATCC9027), Staphylococcus aureus (ATCC6538), Streptococcus mutans (ATCC35275), Propionibacterium acnes (ATCC6919), Candida albicans (ATCC10231), Aspergillus niger (ATCC16404), Trichophyton mentagrophytes (ATCC11480), Malassezia furfur (ATCC14521), MRSA and Cladosporium cladosporioides (IFO6348).
(§10) The respective minimum growth inhibition concentration at which no microbial growth was observed was determined (Table 4).

Assay [10] deals with Cladosporium cladosporioides (IFO6348). The assay can be described thus: Antibacterial activity evaluation, agar dilution MIC. To be noted: Potato dextrose agar medium, 25° C. for 5 days.
Source text: as §8, §9
The bacterial cell suspension of Cladosporium cladosporioides was obtained by incubation in a potato dextrose agar medium at 25° C. for 7 days followed by collecting cells with a platinum loop spatula followed by suspending […] the cells in a sterilized physiological saline followed by filtration through a sterilized gauze to adjust at a cell density at about 10^6 cells /ml.
(§11) To obtain an antibacterial activity assay sample, each compound was dissolved in water to prepare a test solution, which was used as a mother liquor which was diluted with water subsequently.
as §10
(§12) The agar medium (19 ml) was dissolved once and then kept at 50° C., and to this solution 1 ml of each diluted […] was added until reaching the intended concentration and mixed thoroughly and solidified.
(§13) Subsequently, the cell suspension of each test strain was sampled using a platinum loop spatula, with which an about 1 cm line was drawn on the antibacterial agent-supplemented agar plate. Each plate was incubated at the respective temperature for the respective time period shown below.

A further assay has as its system MRSA. The description is as above. To be noted: Muller-Hinton agar medium, 35° C. for 48 hours.
Source text: as §8, §9
The bacterial cell suspension of MRSA was obtained by incubation in a sensitive broth medium at 35° C. for 20 hours.
as §11, §10, §12, §13

“Also recorded” adds a separate entry of the source.

On to “4-Guanidinobutyldodecanamide hydrochloride [LAG-HCl]”, for which, in [1], the “MIC, P. acnes” value is 7.5 to 10 µg/mL. In addition, the “MIC, M. furfur” value in assay [2] lay in the range of 100 to 150 µg/mL. Further, in [3], the “MIC, T. mentagrophytes” value is 75 to 100 µg/mL. For the same molecule, the “MIC, S. aureus” value in assay [4] was 7.5 to 10 µg/mL. Besides, the “MIC, E. coli” value in assay [5] was 75 to 100 µg/mL. Moreover, the “MIC, A. niger” value in [6] was in the range of 200 to 300 µg/mL. Moreover, the “MIC, C. albicans” value in [7] was in the range of 500 to 750 µg/mL. Besides, in [8], the “MIC, S. mutans” value lay in the range of 5 to 7.5 µg/mL. Besides, the “MIC, P. aeruginosa” value in assay [9] was in the range of 75 to 100 µg/mL. In addition, the “antibacterial activity against any of the test strains (verdict in words)” value (“antibacterial activity against any” below) in the assay with test strains was “satisfactory antibacterial activity”.
With `CC(=O)O.CCCCCCCCCC(=O)NCCCCNC(=N)N` [DAG-AcOH, 4-guanidinobutyldecanamide acetate], the “MIC, P. acnes” value in [1] lay in the range of 30 to 50 µg/mL. Also, the “MIC, M. furfur” value in assay [2] is 50 to 75 µg/mL. Also, the “MIC, T. mentagrophytes” value in assay [3] fell in the range of 75 to 100 µg/mL. For the same molecule, the “MIC, S. aureus” value in [4] lay in the range of 30 to 50 µg/mL. For the same molecule, in assay [5], the “MIC, E. coli” value lay within 150 to 200 µg/mL. In addition, in assay [6], the “MIC, A. niger” value was in the range of 300 to 500 µg/mL. For the same molecule, the “MIC, C. albicans” value in [7] lay within 300 to 500 µg/mL. Besides, in assay [8], the “MIC, S. mutans” value lay within 20 to 30 µg/mL. The “MIC, P. aeruginosa” value in assay [9] was 200 to 300 µg/mL. In addition, the “MIC, C. cladosporioides” value in [10] fell in the range of 200 to 300 µg/mL. In addition, in the assay on MRSA, the “MIC, MRSA” value was in the range of 50 to 75 µg/mL. For the same molecule, the “antibacterial activity against any” value with test strains is listed as “satisfactory antibacterial activity”.
In the case of `CC(=O)O.CCCCCCCCCCCC(=O)NCCCCNC(=N)N` [LAG-AcOH, 4-guanidinobutyldodecanamide acetate], the “MIC, P. acnes” value in assay [1] fell in the range of 10 to 15 µg/mL. In assay [2], the “MIC, M. furfur” value is 50 to 75 µg/mL. The “MIC, T. mentagrophytes” value in assay [3] fell in the range of 30 to 50 µg/mL. For the same molecule, the “MIC, S. aureus” value in assay [4] was 2 to 3 µg/mL. Besides, in assay [5], the “MIC, E. coli” value fell in the range of 30 to 50 µg/mL. Besides, in assay [6], the “MIC, A. niger” value is 200 to 300 µg/mL. Further, the “MIC, C. albicans” value in assay [7] lay within 300 to 500 µg/mL. The “MIC, S. mutans” value in assay [8] was 5 to 7.5 µg/mL. In assay [9], the “MIC, P. aeruginosa” value lay in the range of 75 to 100 µg/mL. The “MIC, C. cladosporioides” value in [10] was 150 to 200 µg/mL. In the assay with MRSA, the “MIC, MRSA” value fell in the range of 10 to 15 µg/mL. Moreover, the “antibacterial activity against any” value in the assay with test strains (acetate) is “satisfactory antibacterial activity; also recorded: the best antibacterial activity”.
For the molecule `CC(=O)O.CCCCCCCCCCCCCC(=O)NCCCCN=C(N)N` [MAG-AcOH, 4-guanidinobutymyristilamide acetate], the “MIC, P. acnes” value in assay [1] was in the range of 10 to 15 µg/mL. The “MIC, M. furfur” value in assay [2] lay within 100 to 150 µg/mL. In addition, in [3], the “MIC, T. mentagrophytes” value was in the range of 75 to 100 µg/mL. In addition, the “MIC, S. aureus” value in assay [4] is 3 to 5 µg/mL. For the same molecule, the “MIC, E. coli” value in assay [5] lay in the range of 50 to 75 µg/mL. The “MIC, A. niger” value in assay [6] lay within 300 to 500 µg/mL. Further, the “MIC, C. albicans” value in [7] lay in the range of 500 to 750 µg/mL. For the same molecule, in assay [8], the “MIC, S. mutans” value lay in the range of 3 to 5 µg/mL. In addition, in assay [9], the “MIC, P. aeruginosa” value was in the range of 300 to 500 µg/mL. For the same molecule, in assay [10], the “MIC, C. cladosporioides” value fell in the range of 200 to 300 µg/mL. The “MIC, MRSA” value against MRSA lay in the range of 10 to 15 µg/mL. For the same molecule, in the assay with test strains, the “antibacterial activity against any” value is recorded as “satisfactory antibacterial activity”.
With “N-cocoyl-L-arginine ethyl ester-DL-pyrrolidone carboxylate [CAE, reference compound]”, in assay [1], the “MIC, P. acnes” value lay within 20 to 30 µg/mL. In assay [2], the “MIC, M. furfur” value fell in the range of 75 to 100 µg/mL. Moreover, in assay [3], the “MIC, T. mentagrophytes” value was in the range of 100 to 150 µg/mL. The “MIC, S. aureus” value in [4] is 5 to 7.5 µg/mL. Further, the “MIC, E. coli” value in assay [5] is 75 to 100 µg/mL. Also, the “MIC, A. niger” value in assay [6] was 300 to 500 µg/mL. In assay [7], the “MIC, C. albicans” value was 300 to 500 µg/mL. Moreover, the “MIC, S. mutans” value in assay [8] was 5 to 7.5 µg/mL. For the same molecule, the “MIC, P. aeruginosa” value in [9] lay in the range of 200 to 300 µg/mL. In the assay on test strains, the “antibacterial activity against any” value was “satisfactory antibacterial activity”.

Values taken from patent publication US20030162838A1, “Bactericide, antiseptic, dermally applicable composition, washing composition, antibacterial fiber aggregate, method for eradicating a microorganism, and method for inhibiting the proliferation of a microorgamism” (Ajinomoto Co., Inc., priority 2001, published 2003).
